# Laboratory results reported in patent US20240008482A1, “METHOD OF IN[…] VIRUS USING A GLUT[…] COMPOSITION” (priority 2021, published 2024).
# Columns and labels:
# [1] = test system: adenovirus type 5; type: cell-based
# [2] = test system: MNV; type: cell-based, Murine Norovirus (MNV)
# [3] = test system: poliovirus type 1; type: cell-based
# [4] = test system: SARS-CoV (Isolate FFM-1); details: cited from earlier work
# [5] = test system: HCoV-229E; details: 2% glutaraldehyde; cited from earlier work
# [6] = test system: SARS-CoV (Hanoi strain); details: cited from earlier work
Structure (SMILES),time after which a 4 log10 reduction is achieved [1] [minutes],reduction of viral titre achieved [2] [log10],reduction of viral titre achieved [3] [log10],time to inactivate the virus [4] [min],effectiveness against the virus [5],time to inactivate the virus [6] [min]
C=O [formaldehyde],30,< 4,< 4,–,–,–
O=CCCCC=O [glutaraldehyde],–,–,–,2,effective,5
